Test results taken from patent US7579167B2, “Polypeptides involved in the biosynthesis of spiramycins, nucleotide sequences encoding these polypeptides and applications thereof” (Aventis Pharma S., priority 2002, dated 2009).

Legend:
[1] = comparison with spiramycins II and III; cited from earlier work
[2] = tested on: Micrococcus luteus
Text: The strain of Micrococcus luteus used is a strain naturally sensitive to spiramycin but resistant to congocidine.

| Structure (SMILES) | antibiotic activity compared with spiramycins II and III [1] | activity compared with the spiramycin of origin with the methyl group at position 4 (less active by a factor) ([2]; microbiological test on a sensitive strain of M. luteus) | microbiological activity compared with the unmodified spiramycin (weaker) ([2]; tested on the microorganism Micrococcus luteus, relative to unmodified spiramycin) [fold] |
| --- | --- | --- | --- |
| CO[C@@H]1[C@@H](O[C@@H]2O[C@H](C)[C@@H](O[C@H]3C[C@@](C)(O)[C@@H](O)[C@H](C)O3)[C@H](N(C)C)[C@H]2O)[C@@H](CC=O)C[C@@H](C)[C@@H](O[C@H]2CC[C@H](N(C)C)[C@@H](C)O2)/C=C/C=C/C[C@@H](C)OC(=O)C[C@H]1O [spiramycin I] | clearly greater | – | – |
| CC1CC=CC=CC(OC2CCC(N(C)C)C(C)O2)C(C)CC(CC=O)C(OC2OC(C)C(OC3CC(C)(O)C(O)C(C)O3)C(N(C)C)C2O)C(O)C(O)CC(=O)O1 (stereo not drawn) [spiramycin without the methyl group] | – | 10 | 10 |
